From patent publication US20240209028A1, “CNP COMPOUNDS” (priority 2022, published 2024)
Starred links: 1 amine or outer side, 2 acyl side, 3 side chain; linkers in the order of their positions; H or OH if unused. Positions of bridges follow the written chain, without caps; N, C: chain ends. Residues, ends and D or L forms follow the SMILES beside them. *: point of attachment. C18 diacid = O=C(O)CCCCCCCCCCCCCCCCC(=O)*; γGlu = O=C(O)[C@H](CCC(=O)[*:2])N[*:1]; AEEA = NCCOCCOCC(=O)O

Target: T1, human natriuretic peptide receptor 2 (hNPR2) (Homo sapiens, UniProt P20594)
T1 construct: expressed in transfected cells; host or cells: HEK293 (ATCC CRL-1573), clone 35, co-transfected with pGloSensor-42F
T1 sequence (P20594 23-1047): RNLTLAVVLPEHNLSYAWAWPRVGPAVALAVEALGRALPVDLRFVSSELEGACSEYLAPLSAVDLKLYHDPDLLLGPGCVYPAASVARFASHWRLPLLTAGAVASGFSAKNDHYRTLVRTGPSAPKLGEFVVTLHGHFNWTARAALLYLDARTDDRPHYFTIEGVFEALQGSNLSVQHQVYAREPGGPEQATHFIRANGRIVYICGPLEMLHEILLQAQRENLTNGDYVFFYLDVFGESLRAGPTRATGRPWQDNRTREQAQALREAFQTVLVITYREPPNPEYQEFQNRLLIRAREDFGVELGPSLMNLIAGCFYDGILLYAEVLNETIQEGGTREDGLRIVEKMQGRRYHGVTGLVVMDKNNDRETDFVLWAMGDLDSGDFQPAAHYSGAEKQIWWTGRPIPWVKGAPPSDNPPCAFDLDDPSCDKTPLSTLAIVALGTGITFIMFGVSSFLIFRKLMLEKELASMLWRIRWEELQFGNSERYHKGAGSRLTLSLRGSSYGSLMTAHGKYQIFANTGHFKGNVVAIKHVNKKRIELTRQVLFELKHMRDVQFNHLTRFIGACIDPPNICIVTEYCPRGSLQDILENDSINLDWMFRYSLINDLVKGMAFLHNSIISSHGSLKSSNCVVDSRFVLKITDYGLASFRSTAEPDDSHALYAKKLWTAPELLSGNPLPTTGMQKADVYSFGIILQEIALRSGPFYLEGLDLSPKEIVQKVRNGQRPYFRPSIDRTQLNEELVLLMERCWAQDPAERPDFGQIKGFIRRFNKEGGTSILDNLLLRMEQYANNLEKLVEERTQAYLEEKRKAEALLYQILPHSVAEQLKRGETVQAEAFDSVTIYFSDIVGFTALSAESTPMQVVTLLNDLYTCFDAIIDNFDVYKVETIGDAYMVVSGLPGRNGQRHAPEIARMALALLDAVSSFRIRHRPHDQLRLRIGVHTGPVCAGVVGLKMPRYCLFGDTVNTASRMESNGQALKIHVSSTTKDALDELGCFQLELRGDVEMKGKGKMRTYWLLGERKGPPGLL
Assay: In vitro hNPR2 activity assay (cGMP GloSensor reporter, HEK293)
Type: cell-based
Conditions: for EC50: 0% HSA, HEK293-hNPR2/GloSensor cells; for hNPR2 0% HSA. [EC50% rel CNP]: potency relative to CNP22 (0065)
Summary of the method: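 Potency is the EC50 from a four-parameter logistic fit, also expressed relative to the in-plate CNP22 control (×100), with at least two replicates. Compounds (ten concentrations, […], HSA-free diluent with 1% OVA, 0.01% Tween20) were incubated 30 min at 37 °C on HEK293 cells co-expressing hNPR2 and a GloSensor cGMP luciferase. Luminescence detected with Bright-Glo.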

Compound	EC50	hNPR2 0% HSA. [EC50% rel CNP]
CC[C@H](C)[C@@H]1NC(=O)[C@H](CCCNC(=N)N)NC(=O)[C@H](CCC(=O)O)NC(=O)[C@H](CC(C)C)NC(=O)[C@H](CCCCN)NC(=O)[C@H](CC(C)C)NC(=O)CNC(=O)[C@H](Cc2ccccc2)NC(=O)[C@@H](NC(=O)CNC(=O)[C@H](CCCCN)NC(=O)[C@H](CO)NC(=O)[C@H](CC(C)C)NC(=O)CNC(=O)[C@H](CCCCN)NC(=O)[C@H](CCCCN)NC(=O)[C@H](CCC(N)=O)NC(=O)[C@H](C)NC(=O)CNC(=O)[C@H](CCCCN)NC(=O)[C@H](Cc2ccc(O)cc2)NC(=O)[C@H](CCCCN)NC(=O)[C@H](CCCNC(=N)N)NC(=O)[C@H](C)NC(=O)COCCOCCNC(=O)COCCOCCNC(=O)CC[C@H](NC(=O)CCCCCCCCCCCCCCCCC(=O)O)C(=O)O)CSSC[C@@H](C(=O)O)NC(=O)CNC(=O)[C@H](CC(C)C)NC(=O)CNC(=O)[C@H](CO)NC(=O)[C@H](CC(C)C)NC(=O)[C@H](CO)NC(=O)CNC1=O [compound 0776] ({C18 diacid-γGlu-AEEA-AEEA}-ARKYKGAQKKGLSKGCFGLKLERIGSLSGLGC-OH; disulfide 16-32)	0.58 nM	33.2%
CC[C@H](C)[C@@H]1NC(=O)[C@H](CCCNC(=N)N)NC(=O)[C@H](CC(=O)O)NC(=O)[C@H](CC(C)C)NC(=O)[C@@H]2CCCN2C(=O)[C@H](CC(C)C)NC(=O)CNC(=O)[C@H](Cc2ccccc2)NC(=O)[C@@H](NC(=O)CNC(=O)[C@H](CCCCN)NC(=O)[C@H](CO)NC(=O)[C@H](CC(C)C)NC(=O)CNC(=O)[C@H](CCCCN)NC(=O)[C@H](CCCCN)NC(=O)[C@H](CCC(N)=O)NC(=O)[C@H](C)NC(=O)CNC(=O)[C@H](CCC(=O)O)NC(=O)[C@H](Cc2ccc(O)cc2)NC(=O)COCCOCCNC(=O)COCCOCCNC(=O)CC[C@H](NC(=O)CCCCCCCCCCCCCCCCC(=O)O)C(=O)O)CSSC[C@@H](C(=O)O)NC(=O)CNC(=O)[C@H](CC(C)C)NC(=O)CNC(=O)[C@H](CO)NC(=O)[C@H](CC(C)C)NC(=O)[C@H](CO)NC(=O)CNC1=O [compound 1225] ({C18 diacid-γGlu-AEEA-AEEA}-YEGAQKKGLSKGCFGLPLDRIGSLSGLGC-OH; disulfide 13-29)	–	29.4%
CC[C@H](C)[C@@H]1NC(=O)[C@H](CCCNC(=N)N)NC(=O)[C@H](CC(=O)O)NC(=O)[C@H](CC(C)C)NC(=O)[C@@H]2CCCN2C(=O)[C@H](CC(C)C)NC(=O)CNC(=O)[C@H](Cc2ccccc2)NC(=O)[C@@H](NC(=O)CNC(=O)[C@H](CO)NC(=O)[C@H](CO)NC(=O)[C@H](CC(C)C)NC(=O)CNC(=O)[C@H](CCCCN)NC(=O)[C@H](CCCCN)NC(=O)[C@H](CCC(N)=O)NC(=O)[C@H](C)NC(=O)CNC(=O)[C@H](CCC(=O)O)NC(=O)[C@H](Cc2ccc(O)cc2)NC(=O)COCCOCCNC(=O)COCCOCCNC(=O)CC[C@H](NC(=O)CCCCCCCCCCCCCCCCC(=O)O)C(=O)O)CSSC[C@@H](C(=O)O)NC(=O)CNC(=O)[C@H](CC(C)C)NC(=O)CNC(=O)[C@H](CO)NC(=O)[C@H](CC(C)C)NC(=O)[C@H](CO)NC(=O)CNC1=O [compound 1227] ({C18 diacid-γGlu-AEEA-AEEA}-YEGAQKKGLSSGCFGLPLDRIGSLSGLGC-OH; disulfide 13-29)	–	38.2%
CC[C@H](C)[C@@H]1NC(=O)[C@H](CCCNC(=N)N)NC(=O)[C@H](CC(=O)O)NC(=O)[C@H](CC(C)C)NC(=O)[C@@H]2CCCN2C(=O)[C@H](CC(C)C)NC(=O)CNC(=O)[C@H](Cc2ccccc2)NC(=O)[C@@H](NC(=O)CNC(=O)[C@H](CO)NC(=O)[C@H](CO)NC(=O)[C@H](CC(C)C)NC(=O)CNC(=O)[C@H](CCCCN)NC(=O)[C@H](CCCCN)NC(=O)[C@H](CCC(N)=O)NC(=O)[C@H](C)NC(=O)CNC(=O)[C@H](CCCCN)NC(=O)[C@H](Cc2ccc(O)cc2)NC(=O)COCCOCCNC(=O)COCCOCCNC(=O)CC[C@H](NC(=O)CCCCCCCCCCCCCCCCC(=O)O)C(=O)O)CSSC[C@@H](C(=O)O)NC(=O)CNC(=O)[C@H](CC(C)C)NC(=O)CNC(=O)[C@H](CO)NC(=O)[C@H](CC(C)C)NC(=O)[C@H](CO)NC(=O)CNC1=O [compound 1233] ({C18 diacid-γGlu-AEEA-AEEA}-YKGAQKKGLSSGCFGLPLDRIGSLSGLGC-OH; disulfide 13-29)	–	49.7%
CC[C@H](C)[C@@H]1NC(=O)[C@H](CCCNC(=N)N)NC(=O)[C@H](CC(=O)O)NC(=O)[C@H](CC(C)C)NC(=O)[C@H](CCCCN)NC(=O)[C@H](CC(C)C)NC(=O)CNC(=O)[C@H](Cc2ccccc2)NC(=O)[C@@H](NC(=O)CNC(=O)[C@H](CCCCN)NC(=O)[C@H](CO)NC(=O)[C@H](CC(C)C)NC(=O)CNC(=O)[C@H](CCCCN)NC(=O)[C@H](CCCCN)NC(=O)[C@H](CCC(N)=O)NC(=O)[C@H](C)NC(=O)CNC(=O)[C@H](Cc2c[nH]cn2)NC(=O)[C@H](CCC(=O)O)NC(=O)COCCOCCNC(=O)COCCOCCNC(=O)CC[C@H](NC(=O)CCCCCCCCCCCCCCCCC(=O)O)C(=O)O)CSSC[C@@H](C(=O)O)NC(=O)CNC(=O)[C@H](CC(C)C)NC(=O)CNC(=O)[C@H](CO)NC(=O)[C@H](CC(C)C)NC(=O)[C@H](CO)NC(=O)CNC1=O [compound 1235]	1.17 nM	27.2%
CC[C@H](C)[C@@H]1NC(=O)[C@H](CCCNC(=N)N)NC(=O)[C@H](CC(=O)O)NC(=O)[C@H](CC(C)C)NC(=O)[C@@H]2CCCN2C(=O)[C@H](CC(C)C)NC(=O)CNC(=O)[C@H](Cc2ccccc2)NC(=O)[C@@H](NC(=O)CNC(=O)[C@H](CO)NC(=O)[C@H](CO)NC(=O)[C@H](CC(C)C)NC(=O)CNC(=O)[C@H](CCCCN)NC(=O)[C@H](CCCCN)NC(=O)[C@H](CCC(N)=O)NC(=O)[C@H](C)NC(=O)CNC(=O)[C@H](Cc2c[nH]cn2)NC(=O)[C@H](Cc2ccc(O)cc2)NC(=O)COCCOCCNC(=O)COCCOCCNC(=O)CC[C@H](NC(=O)CCCCCCCCCCCCCCCCC(=O)O)C(=O)O)CSSC[C@@H](C(=O)O)NC(=O)CNC(=O)[C@H](CC(C)C)NC(=O)CNC(=O)[C@H](CO)NC(=O)[C@H](CC(C)C)NC(=O)[C@H](CO)NC(=O)CNC1=O [compound 1241] ({C18 diacid-γGlu-AEEA-AEEA}-YHGAQKKGLSSGCFGLPLDRIGSLSGLGC-OH; disulfide 13-29)	–	30.5%
CC[C@H](C)[C@@H]1NC(=O)[C@H](CCCNC(=N)N)NC(=O)[C@H](CC(=O)O)NC(=O)[C@H](CC(C)C)NC(=O)[C@@H]2CCCN2C(=O)[C@H](CC(C)C)NC(=O)CNC(=O)[C@H](Cc2ccccc2)NC(=O)[C@@H](NC(=O)CNC(=O)[C@H](CO)NC(=O)[C@H](CO)NC(=O)[C@H](CC(C)C)NC(=O)CNC(=O)[C@H](CCCCN)NC(=O)[C@H](CCCCN)NC(=O)[C@H](CCC(N)=O)NC(=O)[C@H](C)NC(=O)CNC(=O)[C@H](CCCCN)NC(=O)[C@H](Cc2ccc(O)cc2)NC(=O)COCCOCCNC(=O)COCCOCCNC(=O)COCCOCCNC(=O)CC[C@H](NC(=O)CC[C@H](NC(=O)CCCCCCCCCCCCCCCCC(=O)O)C(=O)O)C(=O)O)CSSC[C@@H](C(=O)O)NC(=O)CNC(=O)[C@H](CC(C)C)NC(=O)CNC(=O)[C@H](CO)NC(=O)[C@H](CC(C)C)NC(=O)[C@H](CO)NC(=O)CNC1=O [compound 1356] ({C18 diacid-γGlu-γGlu-AEEA-AEEA-AEEA}-YKGAQKKGLSSGCFGLPLDRIGSLSGLGC-OH; disulfide 13-29; C-terminus assumed)	–	22.4%
